Experimental data taken from patent publication US12252484B2, “Pyrazolopyridine compounds for the treatment of autoimmune disease” (Hoffmann-La Roche Inc., priority 2018, dated 2025).

biological target: T1, human TLR9 (Homo sapiens, UniProt Q9NR96); assay: HEK293-Blue-hTLR-9 cells assay (SEAP reporter, ODN2006 stimulation); assay type: cell-based; conditions: not given
T1 sequence (Q9NR96 26-1032): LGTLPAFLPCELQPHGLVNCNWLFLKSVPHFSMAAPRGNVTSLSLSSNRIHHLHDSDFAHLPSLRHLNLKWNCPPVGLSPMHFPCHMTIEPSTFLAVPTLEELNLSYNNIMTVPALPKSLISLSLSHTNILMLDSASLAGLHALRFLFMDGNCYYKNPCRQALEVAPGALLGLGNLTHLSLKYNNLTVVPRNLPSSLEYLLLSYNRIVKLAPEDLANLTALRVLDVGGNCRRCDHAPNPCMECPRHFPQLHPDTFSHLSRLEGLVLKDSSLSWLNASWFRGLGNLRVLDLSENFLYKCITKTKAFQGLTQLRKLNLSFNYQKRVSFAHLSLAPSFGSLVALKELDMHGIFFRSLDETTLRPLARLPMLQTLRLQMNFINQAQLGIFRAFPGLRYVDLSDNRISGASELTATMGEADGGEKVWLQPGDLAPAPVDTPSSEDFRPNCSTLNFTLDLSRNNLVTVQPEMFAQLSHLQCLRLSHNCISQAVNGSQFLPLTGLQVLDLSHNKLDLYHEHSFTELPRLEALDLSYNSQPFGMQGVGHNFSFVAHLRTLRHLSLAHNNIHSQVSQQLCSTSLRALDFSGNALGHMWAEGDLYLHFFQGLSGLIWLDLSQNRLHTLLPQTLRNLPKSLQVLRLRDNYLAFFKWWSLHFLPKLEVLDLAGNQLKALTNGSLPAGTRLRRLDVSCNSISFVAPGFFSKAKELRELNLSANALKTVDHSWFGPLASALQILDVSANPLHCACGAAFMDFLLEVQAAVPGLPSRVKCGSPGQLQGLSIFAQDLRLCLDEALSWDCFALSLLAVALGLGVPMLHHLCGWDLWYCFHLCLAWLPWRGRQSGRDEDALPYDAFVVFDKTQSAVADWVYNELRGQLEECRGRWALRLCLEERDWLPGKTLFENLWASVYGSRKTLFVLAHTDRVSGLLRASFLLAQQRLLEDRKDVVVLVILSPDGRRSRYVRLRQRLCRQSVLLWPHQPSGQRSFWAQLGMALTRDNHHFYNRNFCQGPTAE
Protocol: The following tests were carried out in order to determine the activity of the compounds of formula (I) in HEK293-Blue-hTLR-7/8/9 cells assay.
HEK293-Blue-hTLR-9 Cells Assay:
A stable HEK293-Blue-hTLR-9 cell line was purchased from InvivoGen (Cat. #: hkb-htlr9, San Diego, California, USA). These cells were originally designed for studying the stimulation of human TLR9 by monitoring the activation of NF-κB. A SEAP (secreted embryonic alkaline phosphatase) reporter gene was placed under the control of the IFN-β minimal promoter fused to five NF-κB and AP-1-binding sites. The SEAP was induced by activating NF-κB and AP-1 via stimulating HEK-Blue hTLR9 cells with TLR9 ligands. Therefore the reporter expression was declined by TLR9 antagonist under the stimulation of a ligand, such as ODN2006 (Cat. #: tlrl-2006-1, Invivogen, San Diego, California, USA), for incubation of 20 hrs. The cell culture supernatant SEAP reporter activity was determined using QUANTI-Blue™ kit (Cat. #: rep-qb1, Invivogen, San Diego, California, USA) at a wavelength of 640 nm, a detection medium that turns purple or blue in the presence of alkaline phosphatase.
HEK293-Blue-hTLR9 cells were incubated at a density of 250,000˜450,000 cells/mL in a volume of 170 μL in a 96-well plate in Dulbecco's Modified Eagle's medium (DMEM) containing 4.5 g/L glucose, 50 U/mL penicillin, […], 2 mM L-glutamine, 10% (v/v) heat-inactivated fetal bovine serum with addition of 20 μL test compound in a serial dilution in the presence of final DMSO at 1% and 10 μL of 20 uM ODN2006 in above DMEM, perform incubation under 37° C. in a CO2 incubator for 20 hrs. Then 20 μL of the supernatant from each well was incubated with 180 μL Quanti-blue substrate solution at 37° C. for 2 hrs and the absorbance was read at 620˜655 nm using a spectrophotometer. The signalling pathway that TLR9 activation leads to downstream NF-κB activation has been widely accepted, and therefore similar reporter assay was modified for evaluating TLR9 antagonist.

SMILES	IC50 [µM]
C[C@@H]1CN(c2ccc(C#N)n3nccc23)C[C@H](C(=O)NC2CC3CCCC(C2)N3C)O1 (stereo partly drawn) [Example 35, (2R,6R)-4-(7-cyanopyrazolo[1,5-a]pyridin-4-yl)-6-methyl-N-(9-methyl-9-azabicyclo[3.3.1]nonan-3-yl)morpholine-2-carboxamide]	11

same assay, conditions: HEK293-Blue-hTLR-9 cells, ODN2006 ligand, 20 hrs incubation; read-out: TLR9 IC50

IC50 [µM]	SMILES
25	C[C@@H]1CN(c2ccc(C#N)n3nccc23)C[C@H](C(=O)NC2CCNC2)O1 (stereo partly drawn) [Example 25, (2R,6R)-4-(7-cyanopyrazolo[1,5-a]pyridin-4-yl)-6-methyl-N-pyrrolidin-3-yl-morpholine-2-carboxamide]
> 100	COCCNC(=O)[C@H]1CN(c2ccc(C#N)n3nccc23)C[C@@H](C)O1 [Example 9, (2R,6R)-4-(7-cyanopyrazolo[1,5-a]pyridin-4-yl)-N-(2-methoxyethyl)-6-methyl-morpholine-2-carboxamide]
1.7	C[C@@H]1CN(c2ccc(C#N)n3nccc23)C[C@H](C(=O)N2CCC3(CCNCC3)CC2)O1 [Example 28, 4-[(2R,6R)-2-(3,9-diazaspiro[5.5]undecane-3-carbonyl)-6-methyl-morpholin-4-yl]pyrazolo[1,5a]pyridine-7-carbonitrile]
36	C[C@@H]1CN(c2ccc(Cl)n3nccc23)C[C@H](C(=O)NC2CCN(C)CC2)O1 [Example 38, (2R,6R)-4-(7-chloropyrazolo[1,5-a]pyridin-4-yl)-6-methyl-N-(1-methyl-4-piperidyl)morpholine-2-carboxamide]
36	C[C@@H]1CN(c2ccc(C#N)n3nccc23)C[C@H](C(=O)NC2CC3(CNC3)C2)O1 [Example 3, (2R,6R)-N-(2-azaspiro[3.3]heptan-6-yl)-4-(7-cyanopyrazolo[1,5-a]pyridin-4-yl)-6-methyl-morpholine-2-carboxamide]
> 100	C[C@@H]1CN(c2ccc(C#N)n3nccc23)C[C@H](C(=O)NC23CC(CO)(C2)C3)O1 [Example 15, (2R,6R)-4-(7-cyanopyrazolo[1,5-a]pyridin-4-yl)-N-[3-(hydroxymethyl)-1-bicyclo[1.1.1]pentanyl]-6-methyl-morpholine-2-carboxamide]
> 100	C[C@@H]1CN(c2ccc(C#N)n3nccc23)C[C@H](C(=O)NC2CC3CCC(C2)N3)O1 (stereo partly drawn) [Example 23, Exo-(2R,6R)-N-[8-azabicyclo[3.2.1]octan-3-yl]-4-(7-cyanopyrazolo[1,5-a]pyridin-4-yl)-6-methyl-morpholine-2-carboxamide]
71	C[C@@H]1CN(c2ccc(C#N)n3nccc23)C[C@H](C(=O)N[C@H]2CC[C@@H](O)CC2)O1 [Example 20, Cis-(2R,6R)-4-(7-cyanopyrazolo[1,5-a]pyridin-4-yl)-N-(4-hydroxycyclohexyl)-6-methyl-morpholine-2-carboxamide]
77	C[C@@H]1CN(c2ccc(C#N)n3nccc23)C[C@H](C(=O)NC2CNC[C@H]2F)O1 (stereo partly drawn) [Example 5, Cis-(2R,6R)-4-(7-cyanopyrazolo[1,5-a]pyridin-4-yl)-6-methyl-N-(4-fluoropyrrolidin-3-yl) morpholine-2-carboxamide]
70	C[C@@H]1CN(c2ccc(C#N)n3nccc23)C[C@H](C(=O)N2CC(N)C2)O1 [Example 8, 4-[(2R,6R)-2-(3-aminoazetidine-1-carbonyl)-6-methyl-morpholin-4-yl]pyrazolo[1,5a]pyridine-7-carbonitrile]
48	C[C@@H]1CN(c2ccc(C#N)n3nccc23)C[C@H](C(=O)NCC2CCNC2)O1 (stereo partly drawn) [Example 40, (2R,6R)-4-(7-cyanopyrazolo[1,5-a]pyridin-4-yl)-6-methyl-N-(pyrrolidin-3-ylmethyl)morpholine-2-carboxamide]
> 100	C[C@@H]1CN(c2ccc(C#N)n3nccc23)C[C@H](C(=O)N[C@H]2CNC[C@H]2F)O1 [Example 2, (2R,6R)-4-(7-cyanopyrazolo[1,5-a]pyridin-4-yl)-N-[(3S,4R)-4-fluoropyrrolidin-3-yl]-6-methyl-morpholine-2-carboxamide]
10	C[C@H]1C[C@@H](N)CN(c2ccc(C#N)n3nccc23)C1 [Example 43, 4-[(3R,5S)-3-amino-5-methyl-1-piperidyl]pyrazolo[1,5-a]pyridine-7-carbonitrile]
42	C[C@@H]1CN(c2ccc(C#N)n3nccc23)C[C@H](C(=O)NC23CC4CC(CC(C4)C2)C3)O1 [Example 12, (2R,6R)-N-(1-adamantyl)-4-(7-cyanopyrazolo[1,5-a]pyridin-4-yl)-6-methyl-morpholine-2-carboxamide]
12	C[C@@H]1CN(c2ccc(C#N)n3nccc23)C[C@H](C(=O)NC2CC3CC2CN3)O1 (stereo partly drawn) [Example 36, (2R,6R)-N-(2-azabicyclo[2.2.1]heptan-5-yl)-4-(7-cyanopyrazolo[1,5-a]pyridin-4-yl)-6-methyl-morpholine-2-carboxamide]
19	C[C@@H]1CN(c2ccc(C#N)n3nccc23)C[C@H](C(=O)NCC(C)(C)CN)O1 [Example 39, (2R,6R)-N-(3-amino-2,2-dimethyl-propyl)-4-(7-cyanopyrazolo[1,5-a]pyridin-4-yl)-6-methyl-morpholine-2-carboxamide]
13	C[C@@H]1CN(c2ccc(C#N)n3nccc23)C[C@H](C(=O)NC2C3CCC2CNC3)O1 (stereo partly drawn) [Example 26, (2R,6R)-N-(3-azabicyclo[3.2.1]octan-8-yl)-4-(7-cyanopyrazolo[1,5-a]pyridin-4-yl)-6-methyl-morpholine-2-carboxamide]
> 100	C[C@@H]1CN(c2ccc(C#N)n3nccc23)C[C@H](C(=O)NC2CCOCC2)O1 [Example 4, (2R,6R)-4-(7-cyanopyrazolo[1,5-a]pyridin-4-yl)-6-methyl-N-tetrahydropyran-4-yl-morpholine-2-carboxamide]
10	C[C@H]1C[C@@H](NC(=O)[C@H](C)N)CN(c2ccc(C#N)n3nccc23)C1 [Example 44, (2S)-2-amino-N-[(3R,5S)-1-(7-cyanopyrazolo[1,5-a]pyridin-4-yl)-5-methyl-3-piperidyl]propanamide]
> 100	C[C@@H]1CN(c2ccc(C#N)n3nccc23)C[C@H](C(=O)N[C@H]2CC[C@H](O)CC2)O1 [Example 21, Trans-(2R,6R)-4-(7-cyanopyrazolo[1,5-a]pyridin-4-yl)-N-(4-hydroxycyclohexyl)-6-methyl-morpholine-2-carboxamide]
7.7	C[C@@H]1CN(c2ccc(C#N)n3nccc23)C[C@H](C(=O)NC2CC3CCC(C2)N3C)O1 (stereo partly drawn) [Example 33, (2R,6R)-4-(7-cyanopyrazolo[1,5-a]pyridin-4-yl)-6-methyl-N-(8-methyl-8-azabicyclo[3.2.1]octan-3-yl)morpholine-2-carboxamide]
1.6	C[C@@H]1CN(c2ccc(C#N)n3nccc23)C[C@H](C(=O)NC2CC3CCCC(C2)N3)O1 (stereo partly drawn) [Example 14, (2R,6R)-N-(9-azabicyclo[3.3.1]nonan-3-yl)-4-(7-cyanopyrazolo[1,5-a]pyridin-4-yl)-6-methyl-morpholine-2-carboxamide]
11	C[C@@H]1CN(c2ccc(C#N)n3nccc23)C[C@H](C(=O)NC(C)(C)CN)O1 [Example 41, (2R,6R)-N-(2-amino-1,1-dimethyl-ethyl)-4-(7-cyanopyrazolo[1,5-a]pyridin-4-yl)-6-methyl-morpholine-2-carboxamide]
